Reference: patent US20190125753A1, “COMPOUNDS AND METHODS FOR INCREASING HEMATOPOIESIS” (University of Southern California, priority 2016, published 2019)
Each block holds one molecule with its values, some of them ahead of it.

Experiments:
[1] = test system: Wnt/β-catenin pathway; assay: SuperTOPFLASH (STF1.1 Hek-293) Wnt/β-catenin-driven luciferase reporter; assay type: cell-based
Experimental: A. Wnt/β-Catenin Activity: The Initial SuperTOPFLASH Screen.
(§1) Hek293 cells were stably transfected with plasmid that contains multiple TCF/LEF fragments in front of Luciferase gene. Wnt/β-catenin activity was determined from luciferase expression levels. […] Briefly, stably transfected Hek-293, STFI.1 (Wnt/β-catenin-driven luciferase) and Survivin-Hek-293 (1 Kb Human survivin promoter-driven luciferase) cells were maintained in DMEM, 10% FBS, Pen/Strep with 400 μg/mL G418 or 2 μg/mL puromycin, respectively. To check the activity of ICG-001, YH249, and YH250, the cells were split into white-opaque 96-well plates at 10,000 cells per well and allowed to attach overnight. For SuperTOPLASH, the inhibitors were added to the cells and pre-incubated for 1 hour prior to stimulation with 10 mM Li Cl for 24 hours. Luciferase activity was read using BrightGlo (Promnega) luciferase substrate. For survivin/luc, the inhibitors were added to the cells and incubated for 24 hours prior to readout. To calculate IC5o values, the resulting curve was fitted to a four-parameter logistic model (4PL) using GraphPad Prism 5 software.
(§2) An endogenous human survivin 1 kb promoter was inserted before a luciferase gene. […] R1 and R2 were diversified in this study. Percent inhibition of luciferase activity was calculated according to the following equations; % inhibition of STF 1.1 reporter activity=(I−RLU(10 mM LiCl) treated/RLU(10 omM LiCl) vehicle×control)100, % inhibition of Survivin reporter activity=(1−RLUtreated/RLU vehicle control)×100. Error bars indicate the mean±SE of 3 separate experiments. Selectivity (FIG. 2H) was calculated by IC50 value for Survivin-Hek-293/IC50 value for STF 1.1.

[2] = test system: Human survivin promoter; assay: Survivin/luciferase reporter (Survivin-Hek-293); assay type: cell-based
Experimental: as §1
B. Survivin Expression Level: The Secondary Screen.
as §2

[3] = target: T1, p300/γ-catenin interaction (Mus musculus, UniProt B2RWS6); assay: Co-IP of bone marrow Sca-1posit cells from treated mice (anti-p300); assay type: in vivo; conditions: YH250 2 mg/kg subcutaneously, 24 hrs
T1 construct: bone marrow Sca-1posit cells were isolated with Anti-Sca-1 microbeads; from tissue; host or cells: bone marrow Sca-1 positive cells of female C57/Black mice dosed in vivo
Experimental: (§3) YH250 was used in this study. Female C57/Black mice were administrated with either DMSO (solvent control) or YH250 (2 mg/kg) subcutaneously. 24 hrs later, bone marrow Sca-1posit cells were isolated with Anti-Sca-1 microbeads (Miltenyi Biotec, Cat#130-092-529) for co-immunoprecipitation (FIG. 4A). Cells were then lysed and incubated with either anti-CBP (A22) or anti-p300 (C20) antibodies. Then, the immunoprecipitation complex were electrophoresed and detected with antibodies to either β-catenin or γ-catenin. […] This confirms that YH250 directly disrupts the p300/catenin interaction thereby enhancing the CBP/catenin interaction in HSPCs.

[4] = target: T2, CBP/γ-catenin interaction (Mus musculus, UniProt P45481); assay: Co-IP of bone marrow Sca-1posit cells from treated mice (anti-CBP); assay type: in vivo; conditions: YH250 2 mg/kg subcutaneously, 24 hrs
T2 construct: bone marrow Sca-1posit cells were isolated with Anti-Sca-1 microbeads; from tissue; host or cells: bone marrow Sca-1 positive cells of female C57/Black mice dosed in vivo
Experimental: as §3

[5] = test system: R1 mESCs; conditions: Wnt dependent manner; cited from earlier work
[6] = target: T3, p300 (Mus musculus, UniProt B2RWS6); assay: Bio-249 affinity pull-down from C2Cl2 lysates, p300 immunoblot; assay type: binding
T3 construct: endogenous in cells; host or cells: lysates of mouse C2C12 myoblasts
Experimental: YH249 and YH250 were selected from the compounds described herein for further testing. Co-immunoprecipitation (CO-IP) was performed with mouse myoblast C2Cl2 cells. Cells were treated with DMSO (control), or YH249, or YH250 for 24 hours. Cell lyses were pulled down with anti-p300 or anti-CBP antibodies, run on gel and probed with anti-β-catenin antibody. […] A biotinylated version of YH249 (Bio-249) was prepared via the propargyl amide variant. Using a biotin with a linker and a terminal azide residue, we were able to couple the biotin to the YH249 core via a 3+2 cyclization reaction to provide Bio-249. Bio-249 was incubated with lysates from C2Cl2 myoblasts, either in the presence or absence of competitor YH249 for 4 h at 4° C. and then bound to streptavidin agarose beads. After extensive washing the bound proteins were eluted and run out on an […].

[7] = test system: mouse bone marrow cells; assay: Colony-forming cell (CFC) assay after 4 h in vitro treatment; assay type: cell-based
Experimental: Brief (less than 24 hours) treatment of HSC with YH250 or DMSO was conducted before the CFC or CFU-S12 assay. Mouse bone marrow cells were treated with DMSO (solvent control) or YH250 for 4 hours in serum free HSC expansion medium before the cells were recovered for a colony forming assay. 7-8 Days after cell plating in methylcellulose medium (Stemcell Technologies, Methocult GF M3434, Cat#3434), colonies were scored, and the cells from each plate were recovered and counted.
In fact, they also show similar biological functions with respect to HSPC.

[8] = test system: bone marrow cells; assay: Brief (4 h) incubation of bone marrow cells, 14 days culture, FACS; assay type: cell-based, mouse; conditions: 0.5 μM 4 hrs, 14 days culture
Experimental: Bone marrow cells were treated with DMSO or YH250 (0.5 μM) for 4 hours, then the compound was removed and the cells cultured in QBSF-58 medium for 14 days with 10 ng/ml of SCF, TPO, Flt3 ligand, and IL-6. At the end of culture, cells were recovered and analyzed for LSK cells with FACS.
In a further study, female CD45.1 mice bone marrow cells were incubated with DMSO, or YH249 (0.5 μM) or YH250 (0.5 μM) for 4 hrs in QBSF-58 media, then 2×10^4 cells were plated in QBSF-58 medium containing SCF, TPO, Flt3 and IL-6 (10 ng/ml for each) for 14 days. Cells were then recovered from plate for FACS analysis. […] Correspondingly, there are higher LSK cells (52%, 60% and 70% respectively for DMSO, YH249 and YH250). From every 10,000 analyzed cells, LSKCD34negt cell numbers are 437, 663 and 2051 for DMSO, YH249 and YH250 treated cells, respectively.

[9] = test system: R1 mESCs; assay: Maintenance of mouse ES cell pluripotency, feeder free, 5 days; assay type: cell-based; conditions: with 50 ng/ml Wnt3a or 3 μM CHIR99021; 500 nM YH249 or 200 nM YH250, 5 days
Experimental: (§4) We also determined that IQ-1 indirectly, via binding to the PR72/130 subunit of PP2A, inhibited the p300/β-catenin interaction (Id). Therefore, we anticipated that YH249/250 should also maintain mESC pluripotency in a Wnt dependent manner. To test his, R1 mESCs were cultured under feeder free conditions in the presence or absence of YH249/250 for 5 days. […] Pluripotency markers, Oct4, Nanog, Sox2, SSEA-1 and ALP, were all expressed in the cells treated with Wnt3a and YH250 (FIG. 28b). Moreover, Wnt3a could be replaced with the selective GSK-3 inhibitor CHIR99021, which activates the Wnt signaling pathway (FIG. 28a, lower panel). […] In the event, similarly to ID-8, the combination of Wnt3a and YH249/250 provided morphologically undifferentiated colonies of H9 human embryonic stem cells (hESCs) without FGF and TGF (FIG. 28c). hPSC markers were detected by ALP staining and immunofluorescence (FIG. 28d). In addition to H9 cells, two other hESC lines and a human induced pluripotent stem (iPS) cell line could be also maintained undifferentiated morphology utilizing the same conditions (not shown).
Specifically, FIG. 28A-28D, show maintenance of ESC's pluripotency by YH249 and YH250. […] 28A, Typical colony morphologies of RI mouse ES cells cultured 5 days in [upper panel] 3 μM CHIR99021 and 1 μM PD0325901 (2i) medium, basal medium (2i medium without CHIR99021 and PD0325901), basal medium supplemented with 50 ng/ml Wnt3a alone, [middle panel] combination of 50 ng/ml Wnt3a and 2 μM IQ-1, 500 nM YH249 or 200 nM YH250, [lower panel] 3 μM of CHIR99021 alone, and combination of 3 μM CHIR99021 and 500 nM YH249 or 200 nM YH250. […] The blue signal (Wnt3a panels) represents DAPI nuclear staining. Bars indicate […]. […] The blue signal (Wnt3a panels) represents DAP1 nuclear staining. Scale bars indicate 100 am.

[10] = test system: H9 human embryonic stem cells; assay: Maintenance of human ES cell pluripotency, 5 days; assay type: cell-based; conditions: 25 ng/ml Wnt3a; 500 nM YH249 or 200 nM YH250, 5 days, without FGF and TGF
Experimental: as §4
Specifically, FIG. 28A-28D, show maintenance of ESC's pluripotency by YH249 and YH250. […] 28A, Typical colony morphologies of RI mouse ES cells cultured 5 days in [upper panel] […]

[11] = 4 hours incubation then CFC assay

T3 sequence (B2RWS6 whole entry): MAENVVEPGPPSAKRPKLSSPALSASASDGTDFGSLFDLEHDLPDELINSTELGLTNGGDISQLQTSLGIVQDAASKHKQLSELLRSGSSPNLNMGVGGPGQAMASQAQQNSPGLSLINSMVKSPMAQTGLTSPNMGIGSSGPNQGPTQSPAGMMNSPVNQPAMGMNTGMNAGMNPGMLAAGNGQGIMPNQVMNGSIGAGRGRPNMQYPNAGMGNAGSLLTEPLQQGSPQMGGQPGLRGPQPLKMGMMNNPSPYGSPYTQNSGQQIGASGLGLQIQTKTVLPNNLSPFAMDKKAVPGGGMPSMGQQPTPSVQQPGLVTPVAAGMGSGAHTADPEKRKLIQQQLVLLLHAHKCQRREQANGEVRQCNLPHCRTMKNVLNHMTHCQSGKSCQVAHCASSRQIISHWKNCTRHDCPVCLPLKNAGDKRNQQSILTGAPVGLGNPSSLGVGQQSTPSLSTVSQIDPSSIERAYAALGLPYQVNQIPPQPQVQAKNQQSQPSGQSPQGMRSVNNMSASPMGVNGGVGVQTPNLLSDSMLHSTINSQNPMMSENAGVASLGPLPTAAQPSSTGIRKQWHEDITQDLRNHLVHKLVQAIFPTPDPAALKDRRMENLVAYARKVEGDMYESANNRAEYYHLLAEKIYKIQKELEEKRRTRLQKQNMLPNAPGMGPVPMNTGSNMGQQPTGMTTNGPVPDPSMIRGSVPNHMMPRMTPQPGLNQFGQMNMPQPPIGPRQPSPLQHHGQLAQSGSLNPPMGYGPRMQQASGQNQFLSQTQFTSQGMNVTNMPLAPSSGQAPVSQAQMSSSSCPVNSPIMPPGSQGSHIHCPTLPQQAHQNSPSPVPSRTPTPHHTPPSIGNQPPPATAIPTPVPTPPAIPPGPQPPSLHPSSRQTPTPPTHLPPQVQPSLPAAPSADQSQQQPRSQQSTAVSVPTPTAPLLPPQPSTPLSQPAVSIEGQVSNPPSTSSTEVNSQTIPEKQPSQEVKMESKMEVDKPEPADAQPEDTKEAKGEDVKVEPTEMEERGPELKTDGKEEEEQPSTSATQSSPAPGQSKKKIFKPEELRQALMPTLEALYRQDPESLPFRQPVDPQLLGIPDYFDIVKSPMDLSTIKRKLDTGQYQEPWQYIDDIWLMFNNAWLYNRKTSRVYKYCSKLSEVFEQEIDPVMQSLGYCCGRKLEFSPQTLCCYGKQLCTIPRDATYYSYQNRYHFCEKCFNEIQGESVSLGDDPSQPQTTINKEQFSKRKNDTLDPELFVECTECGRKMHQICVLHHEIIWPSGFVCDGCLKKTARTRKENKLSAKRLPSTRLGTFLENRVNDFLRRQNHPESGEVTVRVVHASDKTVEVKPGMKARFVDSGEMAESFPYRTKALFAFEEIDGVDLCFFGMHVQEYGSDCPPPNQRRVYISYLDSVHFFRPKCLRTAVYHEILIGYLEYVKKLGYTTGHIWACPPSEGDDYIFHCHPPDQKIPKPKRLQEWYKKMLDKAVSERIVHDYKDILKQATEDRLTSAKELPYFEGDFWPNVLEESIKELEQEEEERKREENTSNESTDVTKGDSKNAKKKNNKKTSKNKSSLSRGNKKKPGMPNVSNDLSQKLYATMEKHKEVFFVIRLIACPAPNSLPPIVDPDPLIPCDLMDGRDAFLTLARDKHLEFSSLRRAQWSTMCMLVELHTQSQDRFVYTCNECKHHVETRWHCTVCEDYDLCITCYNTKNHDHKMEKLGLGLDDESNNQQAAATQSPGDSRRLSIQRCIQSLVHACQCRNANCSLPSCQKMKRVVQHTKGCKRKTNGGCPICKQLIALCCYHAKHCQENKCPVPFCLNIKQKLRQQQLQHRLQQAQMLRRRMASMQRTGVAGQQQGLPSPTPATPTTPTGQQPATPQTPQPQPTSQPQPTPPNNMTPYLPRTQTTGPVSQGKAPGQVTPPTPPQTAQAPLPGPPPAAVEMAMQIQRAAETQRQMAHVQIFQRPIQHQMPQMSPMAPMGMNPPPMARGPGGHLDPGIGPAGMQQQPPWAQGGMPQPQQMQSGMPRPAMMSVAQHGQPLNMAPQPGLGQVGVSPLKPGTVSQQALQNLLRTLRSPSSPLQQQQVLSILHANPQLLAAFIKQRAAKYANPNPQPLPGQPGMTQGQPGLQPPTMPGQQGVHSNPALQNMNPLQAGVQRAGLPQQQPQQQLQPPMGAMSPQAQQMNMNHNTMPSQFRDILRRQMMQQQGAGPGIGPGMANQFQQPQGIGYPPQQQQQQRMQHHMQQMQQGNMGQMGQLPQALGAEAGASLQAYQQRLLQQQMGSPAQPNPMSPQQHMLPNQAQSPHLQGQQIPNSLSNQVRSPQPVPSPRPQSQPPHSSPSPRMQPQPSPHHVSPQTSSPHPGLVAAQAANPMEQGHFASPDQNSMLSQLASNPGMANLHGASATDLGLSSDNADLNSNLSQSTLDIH
T2 sequence (P45481 2-2441 limits assumed): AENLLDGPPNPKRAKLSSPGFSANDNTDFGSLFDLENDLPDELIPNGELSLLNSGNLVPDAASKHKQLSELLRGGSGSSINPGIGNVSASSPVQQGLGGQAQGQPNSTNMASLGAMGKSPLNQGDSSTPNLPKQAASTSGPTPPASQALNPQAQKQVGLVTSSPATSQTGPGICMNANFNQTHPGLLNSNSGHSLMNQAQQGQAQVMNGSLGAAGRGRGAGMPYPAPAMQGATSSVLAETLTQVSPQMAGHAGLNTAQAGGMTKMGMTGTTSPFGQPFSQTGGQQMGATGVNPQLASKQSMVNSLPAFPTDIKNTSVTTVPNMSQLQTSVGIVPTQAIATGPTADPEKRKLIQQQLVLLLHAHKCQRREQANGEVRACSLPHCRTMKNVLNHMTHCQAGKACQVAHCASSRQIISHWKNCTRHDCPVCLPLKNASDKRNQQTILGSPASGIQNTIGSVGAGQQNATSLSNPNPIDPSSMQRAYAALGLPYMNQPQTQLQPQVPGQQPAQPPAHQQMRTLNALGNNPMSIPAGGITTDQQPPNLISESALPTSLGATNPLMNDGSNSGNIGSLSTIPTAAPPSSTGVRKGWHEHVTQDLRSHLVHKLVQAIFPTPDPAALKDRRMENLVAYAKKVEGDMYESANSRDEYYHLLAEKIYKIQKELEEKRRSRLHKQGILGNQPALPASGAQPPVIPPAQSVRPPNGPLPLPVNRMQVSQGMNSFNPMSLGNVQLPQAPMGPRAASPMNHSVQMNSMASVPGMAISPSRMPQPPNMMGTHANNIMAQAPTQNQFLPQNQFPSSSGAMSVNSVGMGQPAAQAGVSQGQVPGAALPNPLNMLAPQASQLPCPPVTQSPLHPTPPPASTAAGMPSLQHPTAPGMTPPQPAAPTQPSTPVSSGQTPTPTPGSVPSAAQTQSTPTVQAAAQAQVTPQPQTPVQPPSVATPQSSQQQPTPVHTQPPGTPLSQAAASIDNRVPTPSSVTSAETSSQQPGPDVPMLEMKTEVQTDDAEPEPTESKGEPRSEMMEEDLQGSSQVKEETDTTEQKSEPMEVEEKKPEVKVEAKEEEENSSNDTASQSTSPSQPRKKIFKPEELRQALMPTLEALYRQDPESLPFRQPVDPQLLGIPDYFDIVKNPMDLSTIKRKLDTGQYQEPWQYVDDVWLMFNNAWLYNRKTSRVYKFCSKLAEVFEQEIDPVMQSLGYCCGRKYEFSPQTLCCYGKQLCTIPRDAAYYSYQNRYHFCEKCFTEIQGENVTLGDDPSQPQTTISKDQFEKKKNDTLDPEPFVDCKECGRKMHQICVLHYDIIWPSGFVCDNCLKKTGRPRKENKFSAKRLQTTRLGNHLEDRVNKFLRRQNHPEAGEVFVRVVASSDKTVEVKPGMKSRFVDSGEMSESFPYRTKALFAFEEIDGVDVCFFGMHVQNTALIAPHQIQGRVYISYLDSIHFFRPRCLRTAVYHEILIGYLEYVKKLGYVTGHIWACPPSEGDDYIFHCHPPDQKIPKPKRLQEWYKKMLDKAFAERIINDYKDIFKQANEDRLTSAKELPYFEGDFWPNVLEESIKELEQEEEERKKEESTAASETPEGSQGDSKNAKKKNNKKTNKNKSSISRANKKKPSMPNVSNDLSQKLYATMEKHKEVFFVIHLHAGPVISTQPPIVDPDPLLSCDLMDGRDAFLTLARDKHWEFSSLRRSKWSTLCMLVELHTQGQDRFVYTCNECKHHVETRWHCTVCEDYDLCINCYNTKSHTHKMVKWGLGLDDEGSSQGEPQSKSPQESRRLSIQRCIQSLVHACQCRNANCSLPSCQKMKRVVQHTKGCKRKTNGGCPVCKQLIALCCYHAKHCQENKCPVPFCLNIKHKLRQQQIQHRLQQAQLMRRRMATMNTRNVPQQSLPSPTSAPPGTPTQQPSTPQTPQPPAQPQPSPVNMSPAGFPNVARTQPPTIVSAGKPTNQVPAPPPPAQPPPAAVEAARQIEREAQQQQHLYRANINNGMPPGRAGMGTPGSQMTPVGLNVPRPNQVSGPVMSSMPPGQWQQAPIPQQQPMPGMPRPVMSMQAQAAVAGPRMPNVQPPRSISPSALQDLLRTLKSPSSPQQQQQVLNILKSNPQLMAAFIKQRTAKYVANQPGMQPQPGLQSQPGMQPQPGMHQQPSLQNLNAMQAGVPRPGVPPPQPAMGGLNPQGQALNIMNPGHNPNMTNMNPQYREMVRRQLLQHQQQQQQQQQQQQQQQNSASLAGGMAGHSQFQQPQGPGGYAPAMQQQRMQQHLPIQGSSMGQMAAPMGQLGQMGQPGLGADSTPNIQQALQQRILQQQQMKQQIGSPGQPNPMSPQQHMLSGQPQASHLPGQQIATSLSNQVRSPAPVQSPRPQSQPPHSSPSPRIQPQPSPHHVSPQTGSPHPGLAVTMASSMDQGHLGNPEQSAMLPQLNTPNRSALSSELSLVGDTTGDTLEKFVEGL

- luciferase activity (Wnt/β-catenin activity) ([1]; Hek293 TCF/LEF luciferase): luciferase activity was decreased
- p300/γ-catenin interaction [3]: promotes p300/γ-catenin interaction
- CBP/γ-catenin interaction [4]: inhibits CBP/γ-catenin interaction
SMILES: O=C1[C@H](Cc2ccc(O)cc2)N2C(=O)CCN(C(=O)NCc3ccccc3)[C@H]2CN1Cc1cccc2ccccc12 [ICG-001, reference compound]
- survivin expression level in survivin-reporter system [2]: significantly decreased in a dose dependent manner

SMILES: CC(=O)c1ccc(NN=C(C(N)=O)C2=NC(C)(C)Cc3ccccc32)cc1 [IQ-1]
- mESC pluripotency (previously reported) [5]: maintain long term mESC pluripotency

- IC50 ([1]; Homo sapiens, HEK293, STF1.1 Hek-293, 1 hour pre-incubation, 10 mM LiCl 24 hours): < 0.1 µM
- binding to p300 (affinity precipitation, p300 immunoblot) ([6]; C2Cl2 lysates, 4 h at 4° C., streptavidin agarose beads): directly binding to p300
- competition of the band precipitated by Bio-249 ([6]; free competitor): strongly competed out
SMILES: COc1cccc(CNC(=O)N2C3CN(Cc4cccc(Cl)c4N(C)C)C(=O)[C@H](Cc4ccc(O)cc4)N3C(=O)CN2C)c1OC (some centres unmarked) [YH249]
- IC50 ([2]; Homo sapiens, Survivin-Hek-293, 24 hours, read-out: survivin/luciferase reporter: did not inhibit up to): > 20 µM
- CELL#/plate [7, 11]: 5.2 × 10^5
- CFC#/plate [7, 11]: 27
- cell number in each plate vs DMSO ([7]; 4 hours treatment, cells recovered from plate): higher cell number in each plate
- lineage negative cell ([8]; DMSO 9%): 17%
- LSK cells ([8]; DMSO 52%): 60%
- LSKCD34negt cell numbers ([8]; from every 10,000 analyzed cells, DMSO 437): 663
- mESC pluripotency [9]: maintain pluripotency
- hESC pluripotency [10]: maintain pluripotency
